Experiments:
[1] = molecular target: T1, FAK protein (Homo sapiens, UniProt Q05397); assay: Degradation inducing activity of FAK protein in PA-1 cells, Western blotting (Simple Western JESS); format: cell-based; design: endogenous in cells; host or cells: PA-1 (ATCC CRL-1572); details: at 10 µM, 24 hours
Protocol: In vitro degradation inducing activity of FAK protein of compounds of Examples was evaluated by Western Blotting (WB).
By a test compound, 10 mM DMSO solution was prepared, which was used as a 10 µM test compound solution. Further, the solution was diluted 10-fold with DMSO to prepare a 1 mM solution, which was used as a 1 µM test compound solution.
PA-1 cells (ATCC: CRL-1572, Lot: 70055709) were cultured in Eagle's Minimum Essential Medium supplemented with 10% FBS and 1% Penicillin/Streptomycin. The PA-1 cells seeded in a 24 well plate at 200,000 cells/well/1 mL were cultured for 24 hours, and then 1 µL of DMSO or a test compound solution was added thereto and treatment was performed for 24 hours. Cells were harvested and lysed for 20 minutes on ice using RIPA lysis buffer (Sigma, Cat#R0278) supplemented with protease inhibitor cocktail (Sigma, Cat#P8340; Roche, Cat#P11873580001), and phosphatase inhibitor cocktail (Sigma, Cat#P5726, P0044). The lysate was sonicated (15 seconds, amplitude 30%, 1 cycle) and then centrifuged at 12500 rpm for 15 minutes at 4°C. The protein concentration was determined by BCA assay kit (Thermo Fisher Scientific, Cat#23225).
The western blotting was performed using Simple Western JESS (protein simple). A cell lysis sample (protein amount; about 2 µg) was loaded on a plate of Simple Western JESS, and the expression level of […] was detected using a 12-230 kDa Wes Separation Module (Protein simple, Cat#SM-WO04), an Anti-Rabbit Detection Module for Wes (Protein simple, Cat#DM-001), and a Total Protein Detection Module for Wes (Protein simple, Cat#DM-TP01). As the primary antibody, a material obtained by diluting FAK Rabbit mAb (Cell Signaling Technology, Cat#3285) at 1:100 was used, and as the secondary antibody, a material obtained by diluting HRP-labeled anti-rabbit IgG antibody (Cell Signaling Technology, Cat#7074S) at 1:250 was used. The expression level of the target protein was standardized using the total protein amount loaded as a reference. The standardized expression level data of the control (DMSO) was taken as 100%, and the degradation rate (%) was calculated from the average standardized expression level data of the test compounds (compounds of Examples 109 to 128). All analysis steps, such as data detection and analysis, are fully automated.
Target sequence in this assay (Q05397 whole entry): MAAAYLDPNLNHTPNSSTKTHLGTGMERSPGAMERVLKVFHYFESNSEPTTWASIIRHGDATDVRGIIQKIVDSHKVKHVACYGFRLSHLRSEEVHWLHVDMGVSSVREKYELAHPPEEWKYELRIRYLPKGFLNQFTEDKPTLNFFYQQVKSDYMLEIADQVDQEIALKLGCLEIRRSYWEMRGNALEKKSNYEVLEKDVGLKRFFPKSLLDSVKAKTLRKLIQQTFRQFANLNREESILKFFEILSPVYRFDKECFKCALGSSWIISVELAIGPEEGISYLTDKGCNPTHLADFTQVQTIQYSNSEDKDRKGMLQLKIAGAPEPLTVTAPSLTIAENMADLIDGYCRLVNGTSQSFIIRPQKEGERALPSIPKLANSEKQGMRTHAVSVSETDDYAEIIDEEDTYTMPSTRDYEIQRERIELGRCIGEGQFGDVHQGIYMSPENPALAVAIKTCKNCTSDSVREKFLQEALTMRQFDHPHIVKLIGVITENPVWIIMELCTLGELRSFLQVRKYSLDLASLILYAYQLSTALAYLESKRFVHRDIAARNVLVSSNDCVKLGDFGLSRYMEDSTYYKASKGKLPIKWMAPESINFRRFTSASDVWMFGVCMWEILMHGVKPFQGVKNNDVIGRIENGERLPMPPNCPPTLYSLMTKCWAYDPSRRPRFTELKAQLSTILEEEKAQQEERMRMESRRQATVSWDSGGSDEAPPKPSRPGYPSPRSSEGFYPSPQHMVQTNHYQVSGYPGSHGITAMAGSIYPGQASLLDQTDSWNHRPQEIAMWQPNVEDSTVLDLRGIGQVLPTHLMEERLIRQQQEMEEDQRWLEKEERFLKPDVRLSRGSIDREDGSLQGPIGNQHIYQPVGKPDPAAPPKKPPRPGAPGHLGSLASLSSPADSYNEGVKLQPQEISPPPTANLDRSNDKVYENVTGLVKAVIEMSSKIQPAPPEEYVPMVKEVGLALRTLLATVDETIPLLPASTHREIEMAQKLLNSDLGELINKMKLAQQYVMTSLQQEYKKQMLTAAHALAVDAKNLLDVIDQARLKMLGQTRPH

[2] = molecular target: T1, FAK protein; assay: FAK kinase inhibitory activity, mobility shift assay (MSA, Carna Biosciences); format: biochemical; design: GST (N); purchased Carna Biosciences, Inc; host or cells: baculovirus expression system; details: inhibition rate at 30 nM; reaction time 5 hours
Protocol: The FAK kinase inhibitory activity was measured using a mobility shift assay (MSA) provided by Carna Biosciences, Inc.
The test compound was dissolved in DMSO to prepare a 3 µM solution. The solution was further diluted 25 times with an assay buffer (20 mmol/L HEPES, 0.01%Triton (registered trademark) X-100, 1 mmol/L DTT, pH 7.5) to obtain a test compound solution.
Incomplete human FAK kinase was expressed by fusing 376 to 1052 amino acids of Accession No. NP_722560.1 with GST at the N-terminus using the baculovirus expression system. The GST-FAK was purified by glutathione sepharose chromatography. A 4-fold concentration substrate (Blk/Lyntide, 1000 nmol/L)/ATP (25 µmol/L)/metal solution (Mg, 5 mmol/L) was prepared with kit buffer (20 mmol/L HEPES, 0.01% Triton (registered trademark) X-100, 5 mmol/L DTT, pH 7.5). A 2-fold concentration kinase solution was prepared with assay buffer.
In the same manner as described in Test Example 1, tests and evaluation of inhibitory activity and data analysis were performed. The reaction time was set to 5 hours. […]
Target sequence in this assay (Q05397 376-1052): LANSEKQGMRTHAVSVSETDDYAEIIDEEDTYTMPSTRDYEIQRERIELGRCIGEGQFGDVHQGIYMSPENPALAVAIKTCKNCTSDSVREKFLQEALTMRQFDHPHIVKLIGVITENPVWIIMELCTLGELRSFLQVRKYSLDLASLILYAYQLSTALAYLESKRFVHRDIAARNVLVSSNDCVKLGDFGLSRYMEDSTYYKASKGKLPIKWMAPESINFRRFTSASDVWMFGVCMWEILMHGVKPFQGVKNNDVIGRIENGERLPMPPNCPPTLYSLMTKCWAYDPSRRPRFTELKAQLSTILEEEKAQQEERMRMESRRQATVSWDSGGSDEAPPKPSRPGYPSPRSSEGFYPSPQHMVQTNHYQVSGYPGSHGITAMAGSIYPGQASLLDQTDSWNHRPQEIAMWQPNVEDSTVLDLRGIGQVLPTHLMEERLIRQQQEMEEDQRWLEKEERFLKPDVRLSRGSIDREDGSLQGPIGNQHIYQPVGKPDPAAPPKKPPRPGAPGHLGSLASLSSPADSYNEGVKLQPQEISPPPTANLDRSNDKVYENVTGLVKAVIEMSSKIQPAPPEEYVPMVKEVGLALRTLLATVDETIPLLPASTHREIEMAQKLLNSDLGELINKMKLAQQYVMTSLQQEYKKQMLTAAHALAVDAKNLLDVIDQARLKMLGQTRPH

SMILES	FAK protein degradation rate [1] [%]	inhibition at 0.03 µM [2] [%]
COC[C@H]1CN[C@H](C)CN1CC(=O)N1CC(C)(C)c2nc(CN3CCN(CCOCC(=O)Nc4ccc(Nc5ncc(C(F)(F)F)c(NCc6cccc(S(C)(=O)=O)c6)n5)cc4)CC3)c(Cc3ccc(F)cc3)cc21 [Example 115, 2-(2-(4-((6-(4-Fluorobenzyl)-1-(2-((2R,5R)-2-(methoxymethyl)-5-methylpiperazin-1-yl)acetyl)-3,3-dimethyl-2,3-dihydro-1H-pyrrolo[3,2-b]pyridin-5-yl)methyl)piperazin-1-yl)ethoxy)-N-(4-((4-((3-(methylsulfonyl)benzyl)amino)-5-(trifluoromethyl)pyrimidin-2-yl)amino)phenyl)acetamide]	≥ 75	≥ 75
COC[C@H]1CN[C@H](C)CN1CC(=O)N1CC(C)(C)c2ncc(Cc3cccc(OCCN4CCN(CCOCCOCCOCCOCC(=O)Nc5ccc(Nc6ncc(C(F)(F)F)c(NCc7cccc(S(C)(=O)=O)c7)n6)cc5)CC4)c3)cc21 [Example 128, 14-(4-(2-(3-((1-(2-((2R,5R)-2-(Methoxymethyl)-5-methylpiperazin-1-yl)acetyl)-3,3-dimethyl-2,3-dihydro-1H-pyrrolo[3,2-b]pyridin-6-yl)methyl)phenoxy)ethyl)piperazin-1-yl)-N-(4-((4-((3-(methylsulfonyl)benzyl)amino)-5-(trifluoromethyl)pyrimidin-2-yl)amino)phenyl)-3,6,9,12-tetraoxatetradecanamide]	–	50 to 75
C[C@@H]1CN(CC(=O)N2CC(C)(C)c3ncc(Cc4ccc(F)cc4)cc32)[C@@H](CN(C)CCOCCOCCOCC(=O)Nc2ccc(Nc3ncc(C(F)(F)F)c(NCc4cccc(S(C)(=O)=O)c4)n3)cc2)CN1 [Example 111, 1-((2R,5R)-1-(2-(6-(4-Fluorobenzyl)-3,3-dimethyl-2,3-dihydro-1H-pyrrolo[3,2-b]pyridin-1-yl)-2-oxoethyl)-5-methylpiperazin-2-yl)-2-methyl-N-(4-((4-((3-(methylsulfonyl)benzyl)amino)-5-(trifluoromethyl)pyrimidin-2-yl)amino)phenyl)-5,8,11-trioxa-2-azatridecan-13-amide]	≥ 75	≥ 75
C[C@@H]1CN(CC(=O)N2CC(C)(C)c3ncc(Cc4ccc(F)cc4)cc32)[C@@H](CN(C)CCOCC(=O)Nc2ccc(Nc3ncc(C(F)(F)F)c(NCc4cccc(S(C)(=O)=O)c4)n3)cc2)CN1 [Example 109, 2-(2-((((2R,5R)-1-(2-(6-(4-Fluorobenzyl)-3,3-dimethyl-2,3-dihydro-1H-pyrrolo[3,2-b]pyridin-1-yl)-2-oxoethyl)-5-methylpiperazin-2-yl)methyl)(methyl)amino)ethoxy)-N-(4-((4-((3-(methylsulfonyl)benzyl)amino)-5-(trifluoromethyl)pyrimidin-2-yl)amino)phenyl) acetamide]	–	≥ 75
COC[C@H]1CN[C@H](C)CN1CC(=O)N1CC(C)(C)c2ncc(Cc3ccccc3OCCN3CCN(CCOCCOCCOCC(=O)Nc4ccc(Nc5ncc(C(F)(F)F)c(NCc6cccc(S(C)(=O)=O)c6)n5)cc4)CC3)cc21 [Example 122, 2-(2-(2-(2-(4-(2-(2-((1-(2-((2R,5R)-2-(Methoxymethyl)-5-methylpiperazin-1-yl)acetyl)-3,3-dimethyl-2,3-dihydro-1H-pyrrolo[3,2-b]pyridin-6-yl)methyl)phenoxy)ethyl)piperazin-1-yl)ethoxy)ethoxy)ethoxy)-N-(4-((4-((3-(methylsulfonyl)benzyl)amino)-5-(trifluoromethyl)pyrimidin-2-yl)amino)phenyl)acetamide]	–	50 to 75
COC[C@H]1CN[C@H](C)CN1CC(=O)N1CC(C)(C)c2nc(CN3CCN(CCOCCOCC(=O)Nc4ccc(Nc5ncc(C(F)(F)F)c(NCc6cccc(S(C)(=O)=O)c6)n5)cc4)CC3)c(Cc3ccc(F)cc3)cc21 [Example 116, 2-(2-(2-(4-((6-(4-Fluorobenzyl)-1-(2-((2R,5R)-2-(methoxymethyl)-5-methylpiperazin-1-yl)acetyl)-3,3-dimethyl-2,3-dihydro-1H-pyrrolo[3,2-b]pyridin-5-yl)methyl)piperazin-1-yl)ethoxy)ethoxy)-N-(4-((4-((3-(methylsulfonyl)benzyl)amino)-5-(trifluoromethyl)pyrimidin-2-yl)amino)phenyl)acetamide]	–	50 to 75
